Results: ChEMBL document CHEMBL1138490, “Gamma-aminobutyric acid amides of nortriptyline and fluoxetine display improved pain suppressing activity” (2009)
Activity calls are given as the source filed them. The rule behind the calls is not given here.

Experiments:
[1] = system: Mus musculus; assay: Antinociceptive activity in BALB/c mouse assessed as […] at 4.5 mg/kg, po after 240 mins by hot plate method; type: functional, organism-based; set-up: dose 4.5 mg/kg
[2] = system: Mus musculus; assay: Antinociceptive activity in BALB/c mouse assessed as increase in paw withdrawal latency time at 0.2 mg/kg, po equimolar dose of nortriptyline daily measured after 3 to 5 hrs on day 1; type: functional, organism-based; set-up: dose 0.2 mg/kg
[3] = system: Rattus norvegicus; assay: Antiinflammatory activity against gamma carrageenan-induced paw edema in Wistar rat assessed as reduction in paw volume at 5 mg/kg, po equimolar dose of nortriptyline administered 2 hrs before carrageenan challenge measured after 4 hrs relative to control; type: functional, organism-based; set-up: dose 5 mg/kg
[4] = system: Mus musculus; assay: Antinociceptive activity in BALB/c mouse assessed as […] at 0.25 mg/kg, po after 240 mins by hot plate method; type: functional, organism-based; set-up: dose 0.25 mg/kg
[5] = system: Mus musculus; assay: Anxiolytic activity in BALB/c mouse assessed as distance moved at equimolar oral dose relative to 1 mg/kg nortriptyline after 90 mins by open-field test (RVb= 8485+/-610 cm); type: functional
[6] = system: Mus musculus; assay: Antinociceptive activity in BALB/c mouse assessed as increase in paw withdrawal latency time at 0.2 mg/kg, po daily for 12 days measured after 3 to 5 hrs on day 1; type: functional, organism-based; set-up: dose 0.2 mg/kg
[7] = system: Mus musculus; assay: Antinociceptive activity in BALB/c mouse assessed as […] at 4.5 mg/kg, po equimolar dose of nortriptyline after 240 mins by hot plate method; type: functional, organism-based; set-up: dose 4.5 mg/kg
[8] = organism: Rattus norvegicus; assay: Displacement of [3H]muscimol from GABAA receptor in rat cerebral cortex; type: tissue-based; details: concentration not given here
[9] = system: Mus musculus; assay: Antiinflammatory activity against formalin-induced BALB/c mouse skin assessed as reduction in TNFalpha level at to 0.5 mg/kg, po; type: functional, organism-based; set-up: dose 0.5 mg/kg
[10] = system: Mus musculus; assay: Anxiolytic activity in BALB/c mouse assessed as distance moved at equimolar oral dose relative to 15 mg/kg nortriptyline after 90 mins by open-field test (RVb= 8485+/-610 cm); type: functional
[11] = system: Mus musculus; assay: Anxiolytic activity in BALB/c mouse assessed as distance moved at equimolar oral dose relative to 5 mg/kg nortriptyline after 90 mins by open-field test (RVb= 8485+/-610 cm); type: functional
[12] = system: Mus musculus; assay: Antinociceptive activity in BALB/c mouse assessed as paw withdrawal latency at 0.4 mg/kg, po equimolar dose of nortriptyline after 2 to 4 hrs by hot plate method; type: functional, organism-based; set-up: dose 0.4 mg/kg
[13] = system: Rattus norvegicus; assay: Antiinflammatory activity against gamma carrageenan-induced paw edema in Wistar rat assessed as paw volume at 5 mg/kg, po equimolar dose of nortriptyline administered 2 hrs before carrageenan challenge relative to control; type: functional, organism-based; set-up: dose 5 mg/kg
[14] = system: Rattus norvegicus; assay: Antiinflammatory activity against gamma carrageenan-induced paw edema in Wistar rat assessed as reduction in paw volume at 5 mg/kg, po equimolar dose of nortriptyline administered 2 hrs before carrageenan challenge measured after 24 hrs relative; type: functional, organism-based; set-up: dose 5 mg/kg
[15] = system: Mus musculus; assay: Antinociceptive activity against formalin-induced pain in BALB/c mouse assessed paw licking, biting or shaking at 0.5 mg/kg, po equimolar dose of nortriptyline administered 2 hrs before formalin challenge measured after 0 to 5 mins relative to control; type: functional, organism-based; set-up: dose 0.5 mg/kg
[16] = system: Rattus norvegicus; assay: Antiinflammatory activity against gamma carrageenan-induced paw edema in Wistar rat assessed as reduction in paw volume at 5 mg/kg, po administered 2 hrs before carrageenan challenge measured after 24 hrs relative to control; type: functional, organism-based; set-up: dose 5 mg/kg
[17] = system: Mus musculus; assay: Antinociceptive activity in BALB/c mouse assessed as decrease in inhibition of paw withdrawal latency at 0.1 mg/kg, po after by hot plate method; type: functional, organism-based; set-up: dose 0.1 mg/kg
[18] = system: Mus musculus; assay: Antinociceptive activity in BALB/c mouse assessed as increase in paw withdrawal latency time at 0.2 mg/kg, po equimolar dose of nortriptyline daily measured after 3 to 5 hrs on day 3 to 12; type: functional, organism-based; set-up: dose 0.2 mg/kg
[19] = system: Mus musculus; assay: Anxiolytic activity in BALB/c mouse assessed as immobility at equimolar oral dose relative to 15 mg/kg nortriptyline after 90 mins by open-field test (RVb= 458.4+/-41 s); type: functional
[20] = organism: Rattus norvegicus; assay: Displacement of [3H]GABA from non selective GABA receptor in rat cerebral cortex; type: tissue-based; details: concentration not given here
[21] = system: Mus musculus; assay: Antinociceptive activity in BALB/c mouse assessed as increase in paw withdrawal latency time at 0.2 mg/kg, po equimolar dose of nortriptyline daily measured after 3 to 5 hrs on day 10 to 12; type: functional, organism-based; set-up: dose 0.2 mg/kg
[22] = system: Mus musculus; assay: Anxiolytic activity in BALB/c mouse assessed as immobility at equimolar oral dose relative to 5 mg/kg nortriptyline after 90 mins by open-field test (RVb= 458.4+/-41 s); type: functional
[23] = system: Mus musculus; assay: Antinociceptive activity against formalin-induced pain in BALB/c mouse assessed paw licking, biting or shaking at 5 mg/kg, po administered 2 hrs before formalin challenge measured after 0 to 5 mins relative to control; type: functional, organism-based; set-up: dose 5 mg/kg
[24] = system: Mus musculus; assay: Antinociceptive activity in BALB/c mouse assessed as paw withdrawal latency at 0.4 mg/kg, po after 2 to 4 hrs by hot plate method; type: functional, organism-based; set-up: dose 0.4 mg/kg
[25] = system: Mus musculus; assay: Antinociceptive activity in BALB/c mouse assessed as decrease in inhibition of paw withdrawal latency at 2.39 mg/kg, po after by hot plate method; type: functional, organism-based; set-up: dose 2.39 mg/kg
[26] = system: Mus musculus; assay: Anxiolytic activity in BALB/c mouse assessed as velocity at equimolar oral dose relative to 5 mg/kg nortriptyline after 90 mins by open-field test (RVb= 7.07+/-0.51 cm/s); type: functional
[27] = system: Mus musculus; assay: Antinociceptive activity in BALB/c mouse assessed as […] at 10 mg/kg, po after 240 mins by hot plate method; type: functional, organism-based; set-up: dose 10 mg/kg
[28] = system: Mus musculus; assay: Antinociceptive activity against formalin-induced pain in BALB/c mouse assessed paw licking, biting or shaking at 0.5 mg/kg, po administered 2 hrs before formalin challenge measured after 25 to 35 mins relative to control; type: functional, organism-based; set-up: dose 0.5 mg/kg
[29] = system: Mus musculus; assay: Antinociceptive activity against formalin-induced pain in BALB/c mouse assessed paw licking, biting or shaking at 5 mg/kg, po equimolar dose of nortriptyline administered 2 hrs before formalin challenge measured after 25 to 35 mins relative to control; type: functional, organism-based; set-up: dose 5 mg/kg
[30] = system: Mus musculus; assay: Antinociceptive activity against formalin-induced pain in BALB/c mouse assessed paw licking, biting or shaking at 5 mg/kg, po equimolar dose of nortriptyline administered 2 hrs before formalin challenge measured after 0 to 5 mins relative to control; type: functional, organism-based; set-up: dose 5 mg/kg
[31] = system: Mus musculus; assay: Anxiolytic activity in BALB/c mouse assessed as immobility at equimolar oral dose relative to 1 mg/kg nortriptyline after 90 mins by open-field test (RVb= 458.4+/-41 s); type: functional
[32] = system: Mus musculus; assay: Anxiolytic activity in BALB/c mouse assessed as velocity at equimolar oral dose relative to 15 mg/kg nortriptyline after 90 mins by open-field test (RVb= 7.07+/-0.51 cm/s); type: functional
[33] = system: Mus musculus; assay: Antinociceptive activity against formalin-induced pain in BALB/c mouse assessed paw licking, biting or shaking at 5 mg/kg, po administered 2 hrs before formalin challenge measured after 25 to 35 mins relative to control; type: functional, organism-based; set-up: dose 5 mg/kg
[34] = system: Mus musculus; assay: Antinociceptive activity in BALB/c mouse assessed as […] at 0.25 mg/kg, po equimolar dose of nortriptyline after 240 mins by hot plate method; type: functional, organism-based; set-up: dose 0.25 mg/kg
[35] = system: Rattus norvegicus; assay: Antiinflammatory activity against gamma carrageenan-induced paw edema in Wistar rat assessed as reduction in paw volume at 5 mg/kg, po administered 2 hrs before carrageenan challenge measured after 4 hrs relative to control; type: functional, organism-based; set-up: dose 5 mg/kg
[36] = system: Mus musculus; assay: Antinociceptive activity against formalin-induced pain in BALB/c mouse assessed paw licking, biting or shaking at 0.5 mg/kg, po administered 2 hrs before formalin challenge measured after 0 to 5 mins relative to control; type: functional, organism-based; set-up: dose 0.5 mg/kg
[37] = system: Mus musculus; assay: Anxiolytic activity in BALB/c mouse assessed as velocity at equimolar oral dose relative to 1 mg/kg nortriptyline after 90 mins by open-field test (RVb= 7.07+/-0.51 cm/s); type: functional
[38] = system: Mus musculus; assay: Antinociceptive activity in BALB/c mouse assessed as […] at 0.5 mg/kg, po equimolar dose of nortriptyline after 240 mins by hot plate method; type: functional, organism-based; set-up: dose 0.5 mg/kg
[39] = system: Mus musculus; assay: Antinociceptive activity against formalin-induced pain in BALB/c mouse assessed paw licking, biting or shaking at 0.5 mg/kg, po equimolar dose of nortriptyline administered 2 hrs before formalin challenge measured after 25 to 35 mins relative to control; type: functional, organism-based; set-up: dose 0.5 mg/kg
[40] = system: Mus musculus; assay: Antiinflammatory activity against formalin-induced BALB/c mouse skin assessed as reduction in TNFalpha level at 50 mg/kg, ip; type: functional, organism-based; set-up: dose 50 mg/kg
[41] = system: Rattus norvegicus; assay: Antiinflammatory activity against gamma carrageenan-induced paw edema in Wistar rat assessed as reduction in paw volume at 50 mg/kg, ip administered 2 hrs before carrageenan challenge measured after 4 hrs relative to control; type: functional, organism-based; set-up: dose 50 mg/kg
[42] = system: Rattus norvegicus; assay: Antiinflammatory activity against gamma carrageenan-induced paw edema in Wistar rat assessed as paw volume at 50 mg/kg, ip administered 2 to 4 hrs before carrageenan challenge relative to control; type: functional, organism-based; set-up: dose 50 mg/kg
[43] = system: Rattus norvegicus; assay: Antiinflammatory activity against gamma carrageenan-induced paw edema in Wistar rat assessed as reduction in paw volume at 50 mg/kg, ip administered 2 hrs before carrageenan challenge measured after 24 hrs relative to control; type: functional, organism-based; set-up: dose 50 mg/kg

Which Activity [1] does the source give for `CN(CCC=C1c2ccccc2CCc2ccccc21)C(=O)CCCN.Cl` [BL-1021] here?
Its Activity is “Active”.

What about the Activity [2] of the same molecule?
The Activity was “Active”.

What about the Activity [3] of the same molecule?
The Activity was “inactive”.

What about the Activity [4] of the same molecule?
The Activity was “Active”.

What about the Activity [5] of the same molecule?
Its Activity is 8053 cm.

And the Activity [6]?
Its Activity is “Active”.

What about the Activity [7] of the same molecule?
Its Activity is “Active”.

And the inhibition [8]?
The inhibition was 11%.

And the Activity [9]?
Its Activity is “Active”.

And the Activity [10]?
The Activity was 7413 cm.

And the Activity [11]?
The Activity was 8157 cm.

And the Activity [12]?
The Activity was “Active”.

What about the Activity [13] of the same molecule?
The Activity was “Active”.

And the Activity [14]?
The Activity was “inactive”.

What about the Activity [15] of the same molecule?
Its Activity is “Active”.

What about the Activity [16] of the same molecule?
The Activity was “inactive”.

And the Activity [17]?
Its Activity is “Active”.

What about the Activity [18] of the same molecule?
The Activity was “Active”.

What about the Activity [19] of the same molecule?
The Activity was 572.8 s.

What about the inhibition [20] of the same molecule?
Its inhibition is 6%.

And the Activity [21]?
The Activity was “Active”.

What about the Activity [22] of the same molecule?
The Activity was 467.9 s.

What about the Activity [23] of the same molecule?
The Activity was “Active”.

What about the Activity [24] of the same molecule?
The Activity was “Active”.

And the Activity [25]?
The Activity was “Active”.

What about the Activity [26] of the same molecule?
Its Activity is 6.85 cm/s.

And the Activity [27]?
Its Activity is “Active”.

And the Activity [28]?
The Activity was “Active”.

And the Activity [29]?
Its Activity is “Active”.

And the Activity [30]?
Its Activity is “Active”.

What about the Activity [31] of the same molecule?
The Activity was 447.2 s.

What about the Activity [32] of the same molecule?
The Activity was 6.18 cm/s.

And the Activity [33]?
Its Activity is “Active”.

What about the Activity [34] of the same molecule?
Its Activity is “Active”.

And the Activity [35]?
The Activity was “inactive”.

And the Activity [36]?
The Activity was “Active”.

What about the Activity [37] of the same molecule?
The Activity was 6.72 cm/s.

What about the Activity [38] of the same molecule?
The Activity was “Active”.

And the Activity [39]?
The Activity was “Active”.

What does the source list for `CNCCC=C1c2ccccc2CCc2ccccc21`?
Activity [1]: Active; Activity [4]: Active; Activity [7]: Active; Activity [9]: Active; Activity [13]: Active; Activity [15]: Active; Activity [23]: Active; Activity [28]: Active; Activity [29]: Active; Activity [30]: Active; Activity [33]: Active; Activity [34]: Active; Activity [36]: Active; Activity [38]: Active; Activity [39]: Active

What does the source list for `NCC1(CC(=O)O)CCCCC1`?
Activity [40]: Active; Activity [41]: inactive; Activity [9]: Active; Activity [42]: Active; Activity [43]: inactive
